Laboratory results: patent US10266552B2, “Condensed heterocyclic compound having cycloalkylpyridyl group or salt thereof, agricultural and horticultural insecticide comprising the compound, and method for using the insecticide” (Nihon Nohyaku Co., Ltd., priority 2015, dated 2019)

Assays:
Format in all cases: in vivo
Myzus persicae = assay: Test of control effect on Myzus persicae (foliar application, potted Chinese cabbage); details: 144 h, foliar application to potted Chinese cabbage plants, 6 days after the foliar application, read-out: control effect (control rate), activity level
From the text: Test of Control Effect on Myzus persicae Chinese cabbage plants were planted in plastic pots (diameter: 8 cm, height: 8 cm), green peach aphids (Myzus persicae) were propagated on the plants, and the number of surviving green peach aphids in each pot was counted. The condensed heterocyclic compounds represented by the general formula (1) of the present invention or salts thereof were separately dispersed in water and diluted to 500 ppm, and the agrochemical dispersions were applied to the foliage of the potted Chinese cabbage plants. After the plants were air-dried, the pots were kept in a greenhouse. At 6 days after the foliar application, the number of surviving green peach aphids on the Chinese cabbage plant in each pot was counted, the control rate was calculated according to the formula shown below, and the control effect was evaluated according to the criterion shown below. Control rate=100−{(T×Ca)/(Ta×C)}×100 Ta: the number of survivors before the foliar application in a treatment plot T: the number of survivors after the foliar application in a treatment plot Ca: the number of survivors before the foliar application in a non-treatment plot C: the number of survivors after the foliar application in a non-treatment plot Criterion A: the control rate is 100%. B: the control rate is 90 to 99%. C: the control rate is 80 to 89%. D: the control rate is 50 to 79%.

Laodelphax striatella = assay: Test of insecticidal effect on Laodelphax striatella (rice seedling dip); details: Laodelphax striatellus, 192 h, rice seedlings dipped for 30 seconds, 3rd-instar larvae, 8 days after the inoculation, read-out: insecticidal effect (corrected mortality rate), activity level
From the text: Test of Insecticidal Effect on Laodelphax striatella
The condensed heterocyclic compounds represented by the general formula (1) of the present invention or salts thereof were separately dispersed in water and diluted to 500 ppm, and rice plant seedlings (variety: Nihonbare) were dipped in the agrochemical dispersions for 30 seconds. After air-dried, each seedling was put into a separate glass test tube and inoculated with ten 3rd-instar larvae of Laodelphax striatella, and then the glass test tubes were capped with cotton plugs. At 8 days after the inoculation, the numbers of surviving larvae and dead larvae were counted, the corrected mortality rate was calculated according to the formula shown below, and the insecticidal effect was evaluated according to the criterion of Test Example 1. Corrected mortality rate (%)=100×(Survival rate in a non-treatment plot−Survival rate in a treatment plot)/Survival rate in a non-treatment plot

Plutella xylostella = assay: Test of insecticidal effect on Plutella xylostella (dip of Chinese cabbage seedlings with laid eggs); details: 144 h, seedlings with laid eggs dipped for about 30 seconds, 25° C., 6 days after the dip treatment, read-out: insecticidal effect (corrected mortality rate), activity level
From the text: Test of Insecticidal Effect on Plutella xylostella
Adults of Plutella xylostella were released onto Chinese cabbage seedlings and allowed to lay eggs thereon. At 2 days after the release of the adults, the Chinese cabbage seedlings with laid eggs were dipped for about 30 seconds in agrochemical dispersions diluted to 500 ppm, each of which contained a different condensed heterocyclic compound represented by the general formula (1) of the present invention as an active ingredient. The seedlings were air-dried and then kept in a thermostatic chamber at 25° C. At 6 days after the dip treatment, the number of hatched larvae per plot was counted, the mortality rate was calculated according to the formula shown below, and the insecticidal effect was evaluated according to the criterion of Test Example 1. This test was conducted in triplicate using 10 adults of Plutella xylostella per plot. Corrected mortality rate (%)=100×(Number of hatched larvae in a non-treatment plot−Number of hatched larvae in a treatment plot)/Number of hatched larvae in a non-treatment plot

SMILES	pest or weed control at 500 ppm (Myzus persicae) [%]	mortality at 500 ppm (Laodelphax striatella) [%]	mortality at 500 ppm (Plutella xylostella) [%]
CCS(=O)(=O)c1cc(C2CC2)cnc1-c1nc2cc(C(F)(F)F)cnc2s1 [Compound 5-15]	100	100	100
CCS(=O)(=O)c1cc(C2CC2)cnc1-c1nc2cc(C(F)(F)F)ccc2s1 [Compound 9-12, 2-(3-ethylsulfonyl-5-cyclopropylpyridin-2-yl)-5-trifluoromethyl-benzothiazole]	100	100	100
CC[S+]([O-])c1cc(C2CC2)cnc1-c1nc2cc(C(F)(F)F)ccc2n1C (centres unmarked) [Compound 7-14, 2-(3-ethylsulfinyl-5-cyclopropylpyridin-2-yl)-1-methyl-5-trifluoromethyl-1H-benzimidazole]	100	100	100
CCSc1cc(C2CC2)cnc1-c1nc2cc(C(F)(F)F)cnc2s1 [Compound 5-13]	100	100	100
CCSc1cc(C2CC2)cnc1-c1nc2cc(C(F)(F)F)ccc2s1 [Compound 9-10, 2-(3-ethylthio-5-cyclopropylpyridin-2-yl)-5-trifluoromethyl-benzothiazole]	100	100	100
CCS(=O)(=O)c1cc(C2(C(=O)O)CC2)cnc1-c1nc2cc(C(F)(F)F)cnc2n1C [Compound 11-1]	100	100	100
CCS(=O)(=O)c1cc(C2CC2C(=O)OC)cnc1-c1nc2cc(C(F)(F)F)cnc2n1C (centres unmarked) [Compound 11-82]	100	100	
CCSc1cc(C2CC2)cnc1-c1nc2cc(C(F)(F)F)ccc2n1C [Compound 7-13, 2-(3-ethylthio-5-cyclopropylpyridin-2-yl)-1-methyl-5-trifluoromethyl-1H-benzimidazole]	100	100	100
CCS(=O)(=O)c1cc(C2(C(=O)OC)CC2)cnc1-c1nc2cc(C(F)(F)F)cnc2n1C [Compound 11-2]	100	100	100
CCSc1cc(C2CC2)cnc1-c1nc2cc(C(F)(F)F)cnc2o1 [Compound 3-13, 2-(3-ethylthio-5-cyclopropylpyridin-2-yl)-5-trifluoromethyl-oxazolo[5,4-b]pyridine]	100	100	100
CCS(=O)(=O)c1cc(C2CC2)cnc1-c1nc2cc(C(F)(F)F)cnc2o1 [Compound 3-15, 2-(3-ethylsulfonyl-5-cyclopropylpyridin-2-yl)-5-trifluoromethyl-oxazolo[5,4-b]pyridine]	100	100	100
CCS(=O)(=O)c1cc(C2CC2)cnc1-c1nc2cc(C(F)(F)F)cnc2n1C [Compound 1-15]	100	100	100
CCS(=O)(=O)c1cc(C2CC2)cnc1-c1nc2cc(C(F)(F)F)ccc2n1C [Compound 7-15, 2-(3-ethylsulfonyl-5-cyclopropylpyridin-2-yl)-1-methyl-5-trifluoromethyl-1H-benzimidazole]	100	100	100
CCS(=O)(=O)c1cc(C2(C#N)CC2)cnc1-c1nc2cc(C(F)(F)F)cnc2n1C [Compound 11-13]	100	100	100
CCS(=O)(=O)c1cc(C2(C(N)=O)CC2)cnc1-c1nc2cc(C(F)(F)F)cnc2n1C [Compound 11-6]	100	100	100
